From US11761894B2, “Silicon-rhodamine fluorescent probe containing hydrophobic group and use thereof” (AJOU UNIVERSITY INDUSTRY—ACADEMIC COOPERATION FOUNDATION, priority 2019, dated 2023)

How the values were obtained:
[1] = Photophysical properties (excitation/emission wavelength, absolute quantum yield, fluorescence intensity in PBS); assay type: physicochemical; settings: for Φ (quantum yield): absolute quantum yield
Description: All reactions were carried out under an atmosphere of nitrogen or argon in air-dried glassware with magnetic stirring. Air- and/or moisture-sensitive liquids were transferred with syringe. Organic solutions were concentrated by rotary evaporation at 25-60° C. at 15-30 torr. All solvents and common materials were purchased from suppliers and used without further purification. Column chromatography was carried out as “Flash Chromatography” using Biotage MPLC machine. ^1H NMR and ^13C NMR data were recorded on an JEOL ECZ-600R Magnetic Resonance System (600 MHz) in Ajou University. Recorded shifts are reported in parts per million (6): Chemical shift, multiplicity (s=singlet, d=doublet, t=triplet, q=quartet, m=multiplet, br=broad), coupling constant (J, Hz) and integration. Low resolution mass spectrometry (LRMS) was obtained by LC/MS system, Finnigan MSQplus Surveyer (Thermo Scientific) or 6120 Quadrupole LC/MS (Agilent Technologies). The progress of reaction was monitored using thin layer chromatography (TLC) (silica gel 60, F254 0.25 mm), and components were visualized by observation under UV light (254 and 365 nm) or by treating the TLC plates with Phosphonolybdic acid (PMA), KMnO4, or ninhydrin followed by heating. Cell culture reagents including fatal bovine serum, culture media, and antibiotic-antimycotic solution were purchased from GIBCO. MitoTracker Green, and Hoechst were purchased from Invitrogen. The culture dish and glassbottom dish were purchased from CORNING, and SPL. All spectra experiments were performed in a 1×1 cm quartz cuvette. Fluorescence emission spectra were recorded on JASCO FP-8200 spectrofluorometer, and UV absorption spectra were recorded on JASCO V-670 spectrophotometer. Absolute quantum yield was measured by QE-2000 (Otsuka Electronics).

[2] = system: mitochondria in HeLa cells; assay: Colocalization test of SiR-Mito probes with MitoTracker green in HeLa cells; assay type: cell-based, human; settings: 1 μM probe, 1 h; for Mitochondria Targeting (Pearson coefficient for colocalization with MitoTracker green): 0.5 μM MitoTracker green
Description: HeLa cells were incubated with cell culture media containing 1 μM SiR-Mito probe, and 0.5 μM MitoTracker green. After 1 h, HeLa cells were washed three times with 1×PBS for and observed with a LEICA DMi8 fluorescent microscope. Each experiment was observed using 512-542 nm emitter for FITC channel (for MitoTracker Green), and 663-738 nm exciter, 545-625 nm emitter for Cy5 channel (for SiR-Mito probes). Scale bar: 50 μm.
HeLa human cervical cancer cells were cultured in Dulbecco's modified eagle media (DMEM, GIBCO) containing 10% fetal bovine serum (FBS, GIBCO) and 1% penicillin (GIBCO) at 37° C. in a humidified incubator with 5% CO2. For the fluorescence microscope imaging, cells were harvested using TrypLE™ Express (GIBCO) and resuspended in fresh culture medium. Harvested cells with a density of 4.0×10^3 cells/well were seeded on a HeLa 96 black well plate (CORNING) and incubated for 24 h. Cells were incubated with SiR-Mito probes (1 μM) and MitoTracker Green (0.5 μM) for 60 min. After the incubation, cells were washed with 1×PBS for three times and observed with inverted fluorescence microscope (DMi8, LEICA). Each experiment was observed using a 325-375 nm exciter, 435-485 nm emitter for DAPI channel, 460-500 nm exciter, 512-542 nm emitter for FITC channel, 541-551 nm exciter, 565-605 nm emitter for Rhodamine channel, and 663-738 nm exciter, 545-625 nm emitter for Cy5 channel.
To determine the effect of probe hydrophobicity on the efficiency of targeting to mitochondria, the Pearson coefficient for colocalization of SiR-Mito probes and MitoTracker green, a commercial fluorescent mitochondrial bioprobe, was measured (FIG. 1). For the colocalization test, human cervical cancer HeLa cells were seeded on 96-well plates and incubated for 1 h with 1 μM of each different SiR-Mito probe and 0.5 μM MitoTracker green, washed briefly with 1×PBS, and imaged with a LEICA DMi8 fluorescent microscope using the 40× objective.

| Compound | Em (emission wavelength) [1] [nm] | Ex (excitation wavelength) [1] [nm] | Φ (quantum yield) [1] | Mitochondria Targeting (Pearson coefficient for colocalization with MitoTracker green) [2] | Intracellular fluorescence (SiR channel) [2] |
| --- | --- | --- | --- | --- | --- |
| Cc1ccc(C(=O)NCCc2ccccc2)cc1C1=C2C=CC(=[N+](C)C)C=C2[Si](C)(C)c2cc(N(C)C)ccc21 [SiR-Mito 6, N-(7-(dimethylamino)-5,5-dimethyl-10-(2-methyl-5-(phenethylcabamoyl)phenyl)dibenzo[b,e]silin-3(5H)-ylidene)-N-methylmethanaminium] | 668 | 651 | 0.30 | *** (*** 0.9 ≤ R) |  |
| Cc1ccc(C(=O)NCCO)cc1C1=C2C=CC(=[N+](C)C)C=C2[Si](C)(C)c2cc(N(C)C)ccc21 [SiR-Mito 1, N-(7-(dimethylamino)-10-(5-((2-hydroxyethyl)carbamoyl)-2-methylphenyl)-5,5-dimethyldibenzo[b,e]silin-3(5H)-ylidene)-N-methylmethanaminium] | 668 | 661 | 0.32 |  | absence of fluorescence signal |
| N-(10-(5-((cyclohexylmethyl) carbamoyl)-2-methylphenyl)-7 (dimethylamino)-5,5-dimethyldibenzo[b,e]silin-3(5H)-ylidene)-N-methylmethanaminium [SiR-Mito 5] | 669 | 651 | 0.29 | * (* 0.7 ≤ R < 0.8) |  |
| Cc1ccc(C(=O)NC(C)(C)CC(C)(C)C)cc1C1=C2C=CC(=[N+](C)C)C=C2[Si](C)(C)c2cc(N(C)C)ccc21 [SiR-Mito 7, N-(7-(dimethylamino)-5,5-dimethyl-10-(2-methyl-5-((2,4,4-trimethylpentan-2-yl)carbamoyl)phenyl)dibenzo[b,e]silin-3(5H)-ylidene)-N-methylmethanaminium] | 667 | 650 | 0.29 | *** (*** 0.9 ≤ R) |  |
| CCCCCCC(C)NC(=O)c1ccc(C)c(C2=C3C=CC(=[N+](C)C)C=C3[Si](C)(C)c3cc(N(C)C)ccc32)c1 (centres unmarked) [SiR-Mito 10, N-(7-(dimethylamino)-5,5-dimethyl-10-(2-methyl-5-(octan-2-ylcarbamoyl)phenyl)dibenzo[b,e]silin-3(5H)-ylidene)-N-methylmethanaminium] | 667 | 654 | 0.27 | *** (*** 0.9 ≤ R) |  |
| CCCCNC(=O)c1ccc(C)c(C2=C3C=CC(=[N+](C)C)C=C3[Si](C)(C)c3cc(N(C)C)ccc32)c1 [SiR-Mito 3, N-(10-(5-(butylcarbamoyl)-2-methylphenyl)-7-(dimethylamino)-5,5-dimethyldibenzo[b,e]silin-3(5H)-ylidene)-N-methylmethanaminium] | 665 | 652 | 0.29 |  |  |
| CCNC(=O)c1ccc(C)c(C2=C3C=CC(=[N+](C)C)C=C3[Si](C)(C)c3cc(N(C)C)ccc32)c1 [SiR-Mito 2, N-(7-(dimethylamino)-10-(5-(ethylcarbamoyl)-2-methylphenyl)-5,5-dimethyldibenzo[b,e]silin-3(5H)-ylidene)-N-methylmethanaminium] | 668 | 662 | 0.40 | * (* 0.7 ≤ R < 0.8) |  |
| Cc1ccc(C(=O)NCCC2CCCCC2)cc1C1=C2C=CC(=[N+](C)C)C=C2[Si](C)(C)c2cc(N(C)C)ccc21 [SiR-Mito 9, N-(10-(5-((2-cyclohexylethyl)carbamoyl)-2-methylphenyl)-7-(dimethylamino)-5,5-dimethyldibenzo[b,e]silin-3(5H)-ylidene)-N-methylmethanaminium] | 666 | 652 | 0.26 | *** (*** 0.9 ≤ R) |  |
| Cc1ccc(C(=O)NCc2ccccc2)cc1C1=C2C=CC(=[N+](C)C)C=C2[Si](C)(C)c2cc(N(C)C)ccc21 [SiR-Mito 4, N-(10-(5-(benzylcarbamoyl)-2-methylphenyl)-7-(dimethylamino)-5,5-dimethyldibenzo[b,e]silin-3(5H)-ylidene)-N-methylmethanaminium] | 666 | 651 | 0.30 | * (* 0.7 ≤ R < 0.8) |  |
